Legend:
[1] = tested on: coagulation (clotting time, aPTT) of citrated plasma; assay: In vitro clot lysis / coagulation in citrated plasma with t-PA; format: biochemical, Human; settings: for concentration leading to the same prolongation of aPTT (equipotent concentration): human citrated plasma
Protocol: Human blood is directly withdrawn into 3.8% sodium citrate solution (ratio blood/citrate solution 9:1). The mixture is centrifuged at 1,000 rpm for 10 min to yield citrated plasma.
A mixture consisting of 150 μl citrated plasma 125 μl 0.9% sodium chloride solution 100 μl desulfato hirudin HV1 or MCI-9038 (see below) in 0.9% sodium chloride is prepared directly in 1 ml cuvettes equilibrated at 37° C. The mixture is incubated for 15 min at 37° C. Then, 25 μl of a 1 μg/ml t-PA stock solution (American Diagnostica, New York) and 300 μl 0.0025M calcium chloride solution are added to start coagulation.
The change in the optical density (coagulation) is continuously measured at 608 nm in a Uvikon 810 P spectrophotometer equipped with a kinetic program.
The time (in minutes) from addition of the CaCl2 solution to a change in absorbance greater than 0.025 is defined as the coagulation time. The clot lysis time (in minutes) is defined as the time from the beginning of the clotting to the time at which the absorbance decreased to 10% of the maximum absorbance.
The thrombin inhibitor MCI-9038 [(2R,4R)-4-methyl-1-[N^2 -[(3-methyl-1,2,3,4-tetrahydro-8-quinolyl)-sulfonyl]-L-arginyl]-2-piperidinecarboxylic acid] is chemically synthesized as described in S. Okamoto et al., Biochem. Biophys. Res. Commun. 101, 440-446 (1981). It is used at the following end concentrations: 0.07, 0.14, 0.28, 0.56 and 1.1 μM. The desulfato hirudin used has been prepared by recombinant DNA technology using transformed yeast according to the procedure described in European Patent Application No. 225,633. It is used at the following end concentrations: 0.8, 1.6, 3.2, 8 and 16 nM. The concentrations chosen of MCI-9038 and desulfato hirudin are equipotent concentrations in terms of prolongation of clotting time (coagulation), e.g. 1.2 μM MCl-9038 and 16 nM desulfato hirudin lead to the same prolongation of aPTT.

[2] = tested on: preformed non-radioactive thrombi in the jugular vein; assay: Rabbit jugular vein thrombosis model: inhibition of thrombus accretion during thrombolysis with t-PA; format: in vivo, New Zealand white rabbits
Protocol: The experiments are performed with New Zealand white rabbits (weighing 2.3-3.5 kg) anaesthesized by intravenous (marginal ear vein) injection of 30 mg/kg sodium pentobarbital. Through a paramedical incision of the neck, the jugular veins and the right carotid artery are exposed. The right carotid artery is cannulated with a 1.5 mm diameter polyethylene cannula for blood sampling. The two jugular veins are isolated, cleared over a distance of 2 cm, small side branches are ligated. Each jugular segment is emptied of blood and blood flow is temporarily occluded both proximally and distally by two angiostaths, 1.5 cm apart. A 10 cm length 3.0 TiCron braided polyester suture, presoaked in a collagen solution, is introduced lengthwise in the lumen of the isolated jugular vein for a distance of 4 cm to avoid the embolization of the thrombus to be produced. […] The effects of standard heparin and recombinant desulfato hirudin in preventing thrombus extension during thrombolysis with t-PA are assessed as their ability to inhibit the accretion of ^125 I-fibrinogen onto autologous non-radioactive thrombi preformed in the jugular vein of rabbits. […] The ratio of the radioactivity of the thrombus to the circulating fibrinogen radioactivity is used to quantify thrombus size, which is then expressed as μg or ^125 I-fibrinogen accreted onto the thrombus.

[3] = tested on: activated partial thromboplastin time; assay: aPTT prolongation in control experiments (rabbit model); format: in vivo, New Zealand white rabbits; settings: heparin 0.75 mg/kg, hirudin 1 mg/kg
Protocol: Intravenous infusions are carried out by using a constant rate infusion pump. t-PA derived from melanoma cell cultures is obtained from BioResponse, USA. A total dose of 0.5 mg t-PA is infused through the marginal ear vein over a period of 3 hours. Along with t-PA either saline, standard heparin (KabiVitrum, Sweden, 140 USP/mg; 0.75 mg/kg) or hirudin (1 mg/kg) are infused. Doses of heparin and hirudin are used which give in control experiments the same prolongation in aPTT (activated partial thromboplastin time), e.g. times two.

Molecule	concentration leading to the same prolongation of aPTT (equipotent concentration) ([1]; equipotent with 16 nM desulfato hirudin)	concentration needed to achieve the same effect as a given concentration of desulfato hirudin ([1]; relative to desulfato hirudin, in vitro clot lysis)	concentration leading to the same prolongation of aPTT (equipotent concentration) ([1]; equipotent with 1.2 μM MCI-9038)	effect on thrombus accretion during t-PA thrombolysis ([2]; FIG. 1, infused along with t-PA, heparin 0.75 mg/kg, desulfato hirudin 1 mg/kg)	effect on thrombus accretion with increasing concentrations ([2]; FIG. 2, t-PA with various concentrations of desulfato hirudin)	prolongation in aPTT [3]
CC1CNc2c(cccc2S(=O)(=O)N[C@@H](CCCNC(=N)N)C(=O)N2CC[C@@H](C)C[C@@H]2C(=O)O)C1 (stereo partly drawn) [MCI-9038, (2R,4R)-4-methyl-1-[N^2-[(3-methyl-1,2,3,4-tetrahydro-8-quinolyl)-sulfonyl]-L-arginyl]-2-piperidinecarboxylic acid]	1.2 µM	twenty-fold	–	–	–	–
desulfato hirudin HV1	–	–	0.016 µM	clear reduction in thrombus accretion	this effect can even be potentiated	times two

From US5126134A, “Pharmaceutically active combination” (Ciba-Geigy Corporation, priority 1988, dated 1992)
